Measured values from article PMC7211882, “Controlled release of basic fibroblast growth factor from a peptide biomaterial for bone regeneration” (Royal Society Open Science, 2020).

Target: T1, Proteinase K (Parengyodontium album, UniProt P06873)
T1 construct: purchased RayBiotech, Norcross, GA, USA
Assay: Peptide degradation by proteinase K
Format: in vitro ADME
Conditions: proteinase K 0.05 mg ml^-1, 37°C, 4 h, D-RADA16 0.2 mg ml^-1, intact peptide by HPLC (C18), three replicates
Method: Proteinase K solution (RayBiotech, Norcross, GA, USA) (0.05 mg ml^−1) was added in D-RADA16 and nHA/PA66/D-RADA16 groups, respectively. All samples were incubated at 37°C, and 400 µl aliquots were removed at various time points (1, 2, 4, 6, 8, 12, 24 and 48 h). The enzymatic reaction was terminated by the addition of phenylmethanesulfonyl fluoride (working concentration: 0.1 to 1 mM) and the concentration of the intact peptide were analysed by HPLC (LCMS-2020; Shimadzu, Kyoto, Japan) under the following conditions: Venusil XBP C18, 5 µm, 4.6 × 50 mm (Agela, Tianjin, China); sample injection volume: 100 µl; gradient elution: A, 0.035% trifluoroacetic acid (TFA) in water; and B, 0.035% TFA in acetonitrile/water (80 : 20, vol/vol). A gradient of 10–100% B in 10 min was conducted. The experiment was conducted in three replicates.
Proteinase K, a highly non-specific proteolytic enzyme, was used to examine the stability of D-RADA16 in the various composites. The concentration of each D-RADA16 was set to 0.2 mg ml^−1. And after 4 h, only 30–40% of the peptide remained in the control samples, whereas over 50% of the peptide still remained in the experimental samples. Similar results were observed after 24 and 48 h (figure 1d).

T1 sequence (P06873 106-384): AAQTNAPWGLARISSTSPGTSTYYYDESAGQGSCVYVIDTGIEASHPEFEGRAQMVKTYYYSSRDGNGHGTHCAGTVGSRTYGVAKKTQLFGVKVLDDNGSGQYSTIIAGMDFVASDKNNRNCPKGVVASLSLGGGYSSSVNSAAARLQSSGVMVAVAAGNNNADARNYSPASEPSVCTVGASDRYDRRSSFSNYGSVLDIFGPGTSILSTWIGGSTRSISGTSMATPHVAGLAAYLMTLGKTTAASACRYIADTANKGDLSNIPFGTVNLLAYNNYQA

In the case of `CC(=O)N[C@H](CCCNC(=N)N)C(=O)N[C@H](C)C(=O)N[C@H](CC(=O)O)C(=O)N[C@H](C)C(=O)N[C@H](CCCNC(=N)N)C(=O)N[C@H](C)C(=O)N[C@H](CC(=O)O)C(=O)N[C@H](C)C(=O)N[C@H](CCCNC(=N)N)C(=O)N[C@H](C)C(=O)N[C@H](CC(=O)O)C(=O)N[C@H](C)C(=O)N[C@H](CCCNC(=N)N)C(=O)N[C@H](C)C(=O)N[C@H](CC(=O)O)C(=O)N[C@H](C)C(N)=O` [D-RADA16, Ac-RADARADARADARADA-CONH2], the intact peptide remaining is reported as 30–40%.
